{
  "source": "paper PMC8637440",
  "about": "“Structural Modifications Yield Novel Insights Into the Intriguing Pharmacodynamic Potential of Anti-inflammatory Nitro-Fatty Acids” (Frontiers in Pharmacology, 2021)",
  "key": {"[1]": {"target": "T1, recombinant firefly luciferase (Photinus pyralis, UniProt P08659)", "T1 construct": "purchased Sigma-Aldrich", "T1 sequence (P08659 whole entry)": "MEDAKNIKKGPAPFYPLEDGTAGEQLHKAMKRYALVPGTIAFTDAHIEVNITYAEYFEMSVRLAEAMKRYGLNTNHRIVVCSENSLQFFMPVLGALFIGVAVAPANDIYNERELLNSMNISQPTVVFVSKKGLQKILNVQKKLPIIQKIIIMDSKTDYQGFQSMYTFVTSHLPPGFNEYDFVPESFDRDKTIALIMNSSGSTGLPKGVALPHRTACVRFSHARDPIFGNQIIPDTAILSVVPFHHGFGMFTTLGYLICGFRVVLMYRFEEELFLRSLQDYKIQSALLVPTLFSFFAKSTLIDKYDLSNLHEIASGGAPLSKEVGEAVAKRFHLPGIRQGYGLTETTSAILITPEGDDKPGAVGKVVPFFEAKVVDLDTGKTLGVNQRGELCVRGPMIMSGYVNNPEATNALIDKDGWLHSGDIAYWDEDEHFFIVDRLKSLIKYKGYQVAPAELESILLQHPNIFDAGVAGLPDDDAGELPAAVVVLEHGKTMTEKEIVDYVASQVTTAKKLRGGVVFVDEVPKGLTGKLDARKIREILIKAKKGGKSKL", "assay": "Firefly luciferase activity assay", "assay_type": "biochemical", "conditions": "15 min at 37°C", "description": "Recombinant firefly luciferase (Sigma-Aldrich, St. Louis, Missouri, United States) was diluted to 10^4 U/mg in 1× PBS (phosphate buffered saline) and subsequently incubated with NFA or the substances of interest for 15 min at 37°C. Afterwards, 50 µl per reaction mix was transferred into a white 96-well plate, to which 50 µl/well Dual-Glo® (Promega, Madison, Wisconsin, United States) was added and incubated for another 10 min at 37°C. Luminescence was analyzed with a plate reader.\nSuppl. Figure 1: Fatty acids interfere with firefly luciferase making the luc-based assays not suitable for analysis of signaling pathways modulated by NFA. 10 4 units of firefly luciferase were incubated with 1 µM and 10 µM OA or NFA with different carbon chain length (A) and Michael acceptor position (B) for 15 min at 37°C. Firefly activity is presented as percentage of vehicle control (DMSO) mean + SD, n=5. Compared to vehicle control statistical significance was calculated by one-way ANOVA with Bonferroni post-test. P-values of **P ≦0.0021, **** P ≦0.0001 are considered significant. DMSO, dimethyl sulfoxide; 9NOA, 9-nitro oleic acid; NFA, nitro-fatty acids, OA, oleic acid. […]"}, "[2]": {"test_system": "Nrf-2", "assay": "Nrf-2 induction in HCT-116 cells (Western blot and ELISA)", "assay_type": "cell-based, human", "conditions": "10 µM, 4 h, HCT-116, Western blot and ELISA", "description": "The Nrf-2 and NF-κB transcription factors in the nuclear extracts were detected using an Nrf-2 Transcription Assay Kit (Cayman Chemical, # 600590) and NF-κB (p65 and p50) Transcription Factor Assay Kit (Cayman Chemical, # 10007889 and # 10006912). Prior to assay performance, the nuclear extracts were generated using a Nuclear Extraction Kit (Cayman Chemical, # 10009277). The assay was performed according to the manufacturer’s instructions. For all kits, the nuclear extracts were incubated overnight at 4°C. Development was carried out for 15–20 min or until the wells turned medium to dark blue. Five minutes after the stop solution had been added, the absorbance was read at 450 nm using a plate reader.\nHCT-116 and A549 cells were washed with 1× PBS, and cell extracts were generated using a Nuclear Extraction Kit (Cayman Chemical, #10009277) according to the manufacturer’s instructions, whereas whole-cell lysates were obtained using SDS lysis buffer (55.5 mM Tris-HCl pH 6.8, 2.2% SDS, 9% glycerol supplemented with protease (cOmplete® Protease Inhibitor Cocktail, Roche, Mannheim, Germany) and phosphatase (PhosStop® Easy Pack, Roche, Mannheim, Germany) inhibitors. Protein concentrations from the nuclear and cytosolic fractions were determined with a bicinchoninic acid (BCA) protein assay kit (Pierce™, Rockford, Illinois, United States). Cytoplasmic and nuclear extracts (100 µg each) and 30 µg whole-cell lysates were diluted in 5× Laemmli loading dye and denatured for 10 min at 95°C, loaded on a 10% SDS polyacrylamide gel, and separated by gel electrophoresis for 15 min at 80 V followed by 60 min at 120 V. The separated proteins were blotted onto a nitrocellulose membrane (Hybond-C Extra, Amersham Biosciences Ltd., UK) using the Mini Trans-Blot® module (Bio-Rad, Hercules, California, United States) for 90 min at 90 V. The membrane was blocked with Odyssey blocking buffer (Li-Cor Biosciences, Bad Homburg, Germany) or 5% milk powder in TBS-T (Tris Buffered Saline with 0.1% Tween) for 1 h at room temperature (RT). The membranes were incubated with the primary antibodies overnight at 4°C, and then with the secondary antibodies for 1 h at RT. The primary antibodies were diluted 1:1,000 and the secondary antibodies were diluted 1:10,000 to 1:20,000. […]\nFIGURE 2 Effects of NFA on Nrf-2 expression in colorectal cancer cells. HCT-116 cells were treated with 10 µM NFA and tBHQ and/or MMF for 4 h, and Nrf-2 levels were analyzed by western blotting and ELISA. […] (B) Nrf-2 expression levels were evaluated with an ELISA after incubation with NFA with different carbon chain lengths and Michael acceptor positions. […]"}, "[3]": {"test_system": "sEH", "assay": "Cell-based sEH activity assay in COS-7 cells", "parameters": "species or system Afrikan green monkey", "conditions": "10 µM, 24 h", "description": "sEH activity in the cells was analyzed using a Soluble Epoxide Hydrolase Cell-Based Assay Kit (Cayman Chemical, #600090). […] Following incubation, the cells were processed according to the manufacturer’s instructions. The assay uses an internal signal subtraction to minimize potential errors generated by sEH-independent product formation due esterase mediated hydrolysis. The fluorescence intensity of the samples was measured in a plate reader at excitation/emission wavelengths of 330/465 nm sEH activity was calculated by the 6-methoxy-2-naphthaldehyde standard curve.\nSuppl. Figure 2: Effects of NFA on sEH activity in COS-7 cells. sEH activity in COS-7 cells treated with NFA (10 µM) differ in (A) chain length and (B) Michael acceptor position and […]\nCells were lysed, and hydrolase activity was measured by Epoxy Fluor\n7 lysis presented as mean + SD, n=2-3. […] OA, […]\noleic acid, she, soluble epoxide hydrolase.\n(1 picture or pasted object on this page, not shown here)"}},
  "data": [
    {"smiles": "CCCCCCCCC=C(CCCCCCCC(=O)O)[N+](=O)[O-]", "note": "[18.9.9, 9-nitro-octadec-9-enoic acid]", "values": [
      {"measurement": "inhibition at 1 µM", "setting": "[1]; 1 µM", "value": "> 50", "unit": "%"},
      {"measurement": "inhibition of recombinant firefly luciferase", "setting": "[1]; 10 µM", "value": "complete inhibition"},
      {"measurement": "induction of Nrf-2 (protein levels / signaling)", "setting": "[2]", "value": "strongest effects"}
    ]},
    {"smiles": "CCCCCCCC/C=C\\CCCCCCCC(=O)O", "note": "[OA, oleic acid, reference compound]", "values": [
      {"measurement": "induction of Nrf-2 (protein levels / signaling)", "setting": "[2]", "value": "did not affect"},
      {"measurement": "inhibition of sEH activity in COS-7 cells", "setting": "[3]", "value": "strong suppressive effect"}
    ]}
  ]
}
